Source: patent publication US11180462B2, “Microbiocidal oxadiazole derivatives” (SYNGENTA PARTICIPATIONS AG, priority 2015, dated 2021)

How the values were obtained:
[1] = test system: Puccinia recondita f. Sp. Tritici; test: Fungicidal activity against Puccinia recondita f. sp. tritici / wheat / leaf disc preventative (brown rust); type: in vivo; conditions: foliar, 200 ppm in the applied formulation, wheat leaf segments, preventative, compared to untreated control leaf disks, read-out: disease control
Summary of the method: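 Preventative leaf-segment test, wheat cv. Kanzler on water agar. Spray compound at 200 ppm, inoculate with spores 1 day later; 19° C., 75% rh, 12/12 h light. Read-out: % disease control vs untreated, 7 to 9 days after application.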

[2] = test system: Puccinia recondita f. Sp. Tritici; test: Fungicidal activity against Puccinia recondita f. sp. tritici / wheat / leaf disc curative (brown rust); type: in vivo; conditions: foliar, 24 h, 200 ppm in the applied formulation, wheat leaf segments, curative (applied 1 day after inoculation), compared to untreated control leaf disks, read-out: disease control
Description: Leaf disks or leaf segments of various plant species are cut from plants grown in a greenhouse. The cut leaf disks or segments are placed in multiwell plates (24-well format) onto water agar. The leaf disks are sprayed with a test solution before (preventative) or after (curative) inoculation. Compounds to be tested are prepared as DMSO solutions (max. 10 mg/ml) which are diluted to the appropriate concentration with 0.025% Tween20 just before spraying. The inoculated leaf disks or segments are incubated under defined conditions (temperature, relative humidity, light, etc.) according to the respective test system. A single evaluation of disease level is carried out 3 to 14 days after inoculation, depending on the pathosystem. Percent disease control relative to the untreated check leaf disks or segments is then calculated.
Fungicidal Activity Against Puccinia recondita f. Sp. Tritici/Wheat/Leaf Disc Curative (Brown Rust)
Wheat leaf segments cv. Kanzler are placed on agar in multiwell plates (24-well format). The leaf segments are then inoculated with a spore suspension of the fungus. Plates were stored in darkness at 19° C. and 75% relative humidity. The formulated test compound diluted in water was applied 1 day after inoculation. The leaf segments were incubated at 19° C. and 75% relative humidity under a light regime of 12 hours light/12 hours darkness in a climate cabinet and the activity of a compound was assessed as percent disease control compared to untreated when an appropriate level of disease damage appears in untreated check leaf segments (6 to 8 days after application).
The following compounds at 200 ppm in the applied formulation give at least 80% disease control in this test when compared to untreated control leaf disks under the same conditions, which show extensive disease development.

[3] = test system: Glomerella lagenarium (Colletotrichum lagenarium); test: Fungicidal activity against Glomerella lagenarium (Colletotrichum lagenarium) liquid culture / cucumber / preventative (anthracnose); type: cell-based; conditions: Colletotrichum orbiculare; 20 ppm in the applied formulation; liquid culture (PDB), growth inhibition measured photometrically after 3 to 4 days; compared to untreated control; read-out: disease control
Summary of the method: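 Photometric read-out of fungal growth after 2–7 days, expressed as percent antifungal activity versus untreated check. Cryo-stored conidia in PDB; compound at 20 ppm; dark, 24 °C, 96% RH.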

CON(C(=O)COC(C)=O)C(C)c1ccc(-c2noc(C(F)(F)F)n2)cc1 (stereo not drawn) [Compound 1.270, [2-[methoxy-[1-[4-[5-(trifluoromethyl)-1,2,4-oxadiazol-3-yl]phenyl]ethyl]-amino]-2-oxo-ethyl] acetate]
≥ 80%: pest or weed control at 200 ppm [1] | pest or weed control at 200 ppm [2] | inhibition of growth at 20 ppm [3]

CON(Cc1ccc(-c2noc(C(F)(F)F)n2)cc1)C(=O)OCCCCl [Compound 2.16, 3-chloropropyl N-methoxy-N-[[4-[5-(trifluoromethyl)-1,2,4-oxadiazol-3-yl]phenyl]methyl]-carbamate]
≥ 80%: pest or weed control at 200 ppm [1] | pest or weed control at 200 ppm [2] | inhibition of growth at 20 ppm [3]

CN(Cc1ccc(-c2noc(C(F)(F)F)n2)cc1)C(=O)N(C)C1CCC1 [Compound 3.82, 1-cyclobutyl-1,3-dimethyl-3-[[4-[5-(trifluoromethyl)-1,2,4-oxadiazol-3-yl]phenyl]methyl]urea]
≥ 80%: pest or weed control at 200 ppm [1] | pest or weed control at 200 ppm [2] | inhibition of growth at 20 ppm [3]

CCC(C)N(Cc1ccc(-c2noc(C(F)(F)F)n2)cc1)C(=O)C1(C)CC1 (stereo not drawn) [Compound 1.388, 1-methyl-N-sec-butyl-N-[[4-[5-(trifluoromethyl)-1,2,4-oxadiazol-3-yl]phenyl]methyl]-cyclopropane-carboxamide]
≥ 80%: pest or weed control at 200 ppm [1] | pest or weed control at 200 ppm [2] | inhibition of growth at 20 ppm [3]

CON(Cc1ccc(-c2noc(C(F)(F)F)n2)cc1)C(=O)C1CC1c1ccccc1 (stereo not drawn) [Compound 1.25, N-methoxy-2-phenyl-N-[[4-[5-(trifluoromethyl)-1,2,4-oxadiazol-3-yl]phenyl]methyl]-cyclopropane-carboxamide]
≥ 80%: pest or weed control at 200 ppm [1] | pest or weed control at 200 ppm [2] | inhibition of growth at 20 ppm [3]

C#CCOc1ccc(C(=O)N(Cc2ccc(-c3noc(C(F)(F)F)n3)cc2)C2CC2)cc1F [Compound 1.129, N-cyclopropyl-3-fluoro-4-prop-2-ynoxy-N-[[4-[5-(trifluoromethyl)-1,2,4-oxadiazol-3-yl]phenyl]methyl]-benzamide]
≥ 80%: pest or weed control at 200 ppm [1] | pest or weed control at 200 ppm [2] | inhibition of growth at 20 ppm [3]

CON(Cc1ccc(-c2noc(C(F)(F)F)n2)cc1)C(=O)N(C)C1CCC1 [Compound 3.65, 1-cyclobutyl-3-methoxy-1-methyl-3-[[4-[5-(trifluoromethyl)-1,2,4-oxadiazol-3-yl]phenyl]methyl]urea]
≥ 80%: pest or weed control at 200 ppm [1] | pest or weed control at 200 ppm [2] | inhibition of growth at 20 ppm [3]

CC1(C(=O)N(Cc2ccc(-c3noc(C(F)(F)F)n3)cc2)CC2CCCO2)COC1 (stereo not drawn) [Compound 1.438, 3-methyl-N-(tetrahydrofuran-2-ylmethyl)-N-[[4-[5-(trifluoromethyl)-1,2,4-oxadiazol-3-yl]phenyl)methyl]-oxetane-3-carboxamide]
≥ 80%: pest or weed control at 200 ppm [1] | pest or weed control at 200 ppm [2] | inhibition of growth at 20 ppm [3]

CCN(Cc1ccc(-c2noc(C(F)(F)F)n2)cc1)C(=O)N(C)CCOC [Compound 3.85, 1-ethyl-3-(2-methoxyethyl)-3-methyl-1-[[4-[5-(trifluoromethyl)-1,2,4-oxadiazol-3-yl]phenyl]methyl]urea]
≥ 80%: pest or weed control at 200 ppm [1] | pest or weed control at 200 ppm [2] | inhibition of growth at 20 ppm [3]

O=C(c1cccc2nnsc12)N(Cc1ccc(-c2noc(C(F)(F)F)n2)cc1)C1CC1 [Compound 1.139, N-cyclopropyl-N-[[4-[5-(trifluoromethyl)-1,2,4-oxadiazol-3-yl]phenyl]methyl]-1,2,3-benzothiadiazole-7-carboxamide]
≥ 80%: pest or weed control at 200 ppm [1] | pest or weed control at 200 ppm [2] | inhibition of growth at 20 ppm [3]

COCCCC(=O)N(Cc1ccc(-c2noc(C(F)(F)F)n2)cc1)CC1CCCO1 (stereo not drawn) [Compound 1.452, 4-methoxy-N-(tetrahydrofuran-2-ylmethyl)-N-[[4-[5-(trifluoromethyl)-1,2,4-oxadiazol-3-yl]phenyl]methyl]-butanamide]
≥ 80%: pest or weed control at 200 ppm [1] | pest or weed control at 200 ppm [2] | inhibition of growth at 20 ppm [3]

COCCC(=O)N(Cc1ccc(-c2noc(C(F)(F)F)n2)cc1)CC1CCCO1 (stereo not drawn) [Compound 1.422, 3-methoxy-N-(tetrahydrofuran-2-ylmethyl)-N-[[4-[5-(trifluoromethyl)-1,2,4-oxadiazol-3-yl]phenyl]methyl]-propanamide]
≥ 80%: pest or weed control at 200 ppm [1] | pest or weed control at 200 ppm [2] | inhibition of growth at 20 ppm [3]

O=C(C1CCCCO1)N(Cc1ccc(-c2noc(C(F)(F)F)n2)cc1)CC1CCCO1 (stereo not drawn) [Compound 1.411, N-(tetrahydrofuran-2-ylmethyl)-N-[[4-[5-(trifluoromethyl)-1,2,4-oxadiazol-3-yl]phenyl]methyl]-tetrahydropyran-2-carboxamide]
≥ 80%: pest or weed control at 200 ppm [1] | pest or weed control at 200 ppm [2] | inhibition of growth at 20 ppm [3]

CON(Cc1ccc(-c2noc(C(F)(F)F)n2)cc1)C(=O)NCC(C)(C)C [Compound 3.10, 3-(2,2-dimethylpropyl)-1-methoxy-1-[[4-[5-(trifluoromethyl)-1,2,4-oxadiazol-3-yl]phenyl]methyl]urea]
≥ 80%: pest or weed control at 200 ppm [1] | pest or weed control at 200 ppm [2] | inhibition of growth at 20 ppm [3]

O=C(C1CCCO1)N(Cc1ccc(-c2noc(C(F)(F)F)n2)cc1)Cc1ccco1 (stereo not drawn) [Compound 1.469, N-(2-furylmethyl)-N-[[4-[5-(trifluoromethyl)-1,2,4-oxadiazol-3-yl]phenyl]methyl]-tetrahydrofuran-2-carboxamide]
≥ 80%: pest or weed control at 200 ppm [1] | pest or weed control at 200 ppm [2] | inhibition of growth at 20 ppm [3]

C#CCN(C(=O)N(C)Cc1ccc(-c2noc(C(F)(F)F)n2)cc1)C1CC1 [Compound 3.80, 1-cyclopropyl-3-methyl-1-prop-2-ynyl-3-[[4-[5-(trifluoromethyl)-1,2,4-oxadiazol-3-yl]phenyl]methyl]urea]
≥ 80%: pest or weed control at 200 ppm [1] | pest or weed control at 200 ppm [2] | inhibition of growth at 20 ppm [3]

C#CCN(C(=O)N(CC)Cc1ccc(-c2noc(C(F)(F)F)n2)cc1)C1CC1 [Compound 3.99, 1-cyclopropyl-3-ethyl-1-prop-2-ynyl-3-[[4-[5-(trifluoromethyl)-1,2,4-oxadiazol-3-yl]phenyl]methyl]urea]
≥ 80%: pest or weed control at 200 ppm [1] | pest or weed control at 200 ppm [2] | inhibition of growth at 20 ppm [3]

CCN(Cc1ccc(-c2noc(C(F)(F)F)n2)cc1)C(=O)N1CCCC1 [Compound 3.93, N-ethyl-N-[[4-[5-(trifluoromethyl)-1,2,4-oxadiazol-3-yl]phenyl]methyl]-pyrrolidine-1-carboxamide]
≥ 80%: pest or weed control at 200 ppm [1] | pest or weed control at 200 ppm [2] | inhibition of growth at 20 ppm [3]

CCOC(=O)N(Cc1ccc(-c2noc(C(F)(F)F)n2)cc1)OC [Compound 2.1, ethyl N-methoxy-N-[[4-[5-(trifluoromethyl)-1,2,4-oxadiazol-3-yl]phenyl]methyl]-carbamate]
≥ 80%: pest or weed control at 200 ppm [1] | pest or weed control at 200 ppm [2] | inhibition of growth at 20 ppm [3]

O=C(Cc1ccc(Cl)cc1)N(Cc1ccc(-c2noc(C(F)(F)F)n2)cc1)C1CC1 [Compound 1.127, 2-(4-chlorophenyl)-N-cyclopropyl-N-[[4-[5-(trifluoromethyl)-1,2,4-oxadiazol-3-yl]phenyl]methyl]-acetamide]
≥ 80%: pest or weed control at 200 ppm [1] | pest or weed control at 200 ppm [2] | inhibition of growth at 20 ppm [3]
